Experiments:
Format in all cases: cell-based
HeLa cells [1] = experiment: Regulated FRB/FKBP heterodimerization of PINK1 to outer mitochondrial membrane
Text: In the presence of the rapamycin derivative AP21967, the FRB domain and the FKBP domain heterodimerize, but only if they are in the same compartment. Thus, FRB-PINK1Δ1-110-YFP should be recruited from the cytosol to mitochondria if the FKBP domain of TOM20-FKBP faces the cytosol but not if it faces the inner membrane space or the matrix. […] To assess whether PINK1 expression on the outer mitochondrial membrane is sufficient to recruit Parkin, mCherry-Parkin, FRB-PINK1Δ1-110-YFP, and TOM20-FKBP were co-transfected. In the absence of AP21967, mCherry-Parkin was in the cytosol, but following incubation AP21967 mCherry-Parkin was recruited to mitochondria in 96.7±4.1% of cells, in the absence of CCCP (FIG. 14F and FIG. 15D).
HeLa YFP-Parkin, E18 Rat cortical neurons, PINK1^+/+ SV40 transformed MEFs cells, PINK1^−/− SV40 transformed MEF, M17 neuroblastoma control shRNA, M17 neuroblastoma PINK1, Mfn1/2^−/− MEF, and Parl^−/− MEF cell lines have been described previously (Narendra (2008) J Cell Biol 183: 795-803). PINK1^+/+ and PINK1^−/− primary MEFs were isolated from embryos using a standard protocol (Gautier (2008) Proc Natl Acad Sci USA 105: 11364-11369). […]

HeLa cells [2] = experiment: Parkin colocalization with mitochondria scored by confocal microscopy; conditions: HeLa cells, 2 mM paraquat, 24 hours
Method in brief: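 Transfected HeLa cells fixed 12–24 h post-transfection in 4% paraformaldehyde. Cells immunostained for mitochondrial markers and imaged by confocal microscopy. Parkin recruitment to mitochondria assessed by line-scan colocalization.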

HeLa cells [3] = experiment: PINK1-YFP imaging and colocalization in HeLa cells; conditions: 2 mM paraquat, 16 hours
Protocol: (§1) Confocal microscopy of fixed samples, scoring of Parkin recruitment and Parkininduced mitophagy, and live cell imaging were performed as described previously (Narendra (2008) J Cell Biol 183: 795-803). Experiments in Mfn1/2 null cells were performed as described previously with minor modifications.
as §1, with “Parkin-induced” for “Parkininduced”, “imageing” for “imaging”, “modifications described in the supplemental methods (Narendra (2008) J Cell Biol 183: 795-803).” for “modifications.”

PINK1 = PINK1 cleavage pattern by immunoblotting (Examples 4 and 5); conditions: HeLa, absence of MG132 treatment
Protocol: PARL siRNA (5′-[…]-C′) were synthesized by Qiagen. In order to achieve efficient knockdown of PARL, cells were transfected twice over a period of 96 hrs. PINK1-V5/His was a gift from M. Cookson (National Institute of Health, Bethesda, Md.). For site-directed mutagenesis, primers were designed using Primer X, web-based mutagenic primer design program (http://www.bioinformatics.org/primerx/), and produced by Operon. 15 rounds of PCR reactions were performed using Phusion DNA polymerase (Finnzymes) and WT PINK1-YFP constructs as a template. Introduction of point mutations were confirmed by sequencing.
(§2) Cells were cultured in borosilicated chamber slides for imaging, 6-well plates for whole cell lysates, and 100 or 150 mm culture dish for subcellular fractionation. One day after seeding, cells were transfected with indicated constructs using Fugene HD (Roche) or Lipofectamine 2000 (Invitrogen) according to the manufacturer's guidelines.
For whole cell lysates, cells were washed twice with cold-PBS and then directly lysed with 1× sample buffer. For mitochondrial fraction, cells were fractionated as described previously (Narendra et al., 2008) and below, and then mitochondrial pellets were lysed with 1× sample buffer. 20 μg of proteins were separated on 4-12% Tris-glycine or Bis-Tris SDS-PAGE. The following antibodies were used: anti-PINK1 (Novus Biologicals), anti-PARL N-terminal (a gift from L. Pellegrini), anti-Tom20 (Santa Cruz Biotechnology, Inc.), anti-AIF (Sigma-Aldrich) and antiHtra2/Omi (R&D systems) polyclonal antibodies; anti-VDAC (Calbiochem), anti-Tubulin, anti-βactin (Sigma-Aldrich), anti-Hsp70 (Cell Signaling Technologies), anti-Tom20 (BD), anti-Tim23 and anti-cytochrome C (BD) monoclonal antibodies.

HeLa cells [4] = experiment: Mitochondrial translocation of Parkin by imaging (Examples 4 and 5); conditions: HeLa cells or PINK1 KO cells, without CCCP
Protocol: as §2
For immunocytochemistry, cultured cells in borosilicated chamber slides were fixed with 4% paraformaldehyde in PBS (USB) and permeabilized with the indicated detergent. After 30 min blocking with 10% BSA in PBS, cells were stained with the following primary antibodies: antiTom20 polyclonal antibody (Santa Cruz Biotechnology, Inc.) and anti-cytochrome C monoclonal antibody (BD), or anti-Tom20 monoclonal antibody (BD) and anti-GFP polyclonal antibody (Invitrogen) and then with the following secondary antibodies: goat anti-mouse/rabbit IgG antibody conjugated with Alexa Fluor 594/647, respectively. In case of live cell imaging, cells were pulsed with 600 nM TMRE for 5 min to evaluate mitochondrial membrane potential or 10 nM Mitotracker Red for 30 min to see the mitochondrial morphology. Cells were imaged using an inverted microscope (LSM510 Meta; Carl Zeiss) with 63×/1.4 oil DIC Plan Apo objective. Image contrast and brightness were adjusted in LSM image browser (Carl Zeiss).

[5] = system: HeLa cells stably expressing GFP-LC3; experiment: Mitochondria encapsulated by LC3-positive autophagosomes; conditions: 10 μM CCCP, 1 hour
Protocol: Previous studies in mammalian cells have concluded that depolarized mitochondria are degraded by autophagy. To test whether Parkin may be regulating this process, colocalization was assessed between a marker of autophagosomes, LC3, and mitochondria after mitochondrial depolarization using HeLa cells stably transfected with GFP-LC3 (Bampton et al., 2005). Little colocalization between mitochondria and autophagosomes was seen after 1 hours of CCCP exposure in untransfected HeLa cells (FIG. 5A, left). […] Consistent with the conclusion that Parkin accumulates on mitochondria destined for autophagy, Parkin colocalized with LC3 after CCCP treatment (FIG. 5C) but not before.
HeLa cells stably expressing YFP-Parkin using the Flp-In system (Invitrogen) were creating according to the manufacturer's instructions and maintained in 300 μg/ml hygromycin (Sigma-Aldrich). Rat cortical neurons were isolated on embryonic day 18 and grown in neurobasal media supplemented with B-27, L-glutamine, and penicillin/streptomycin. All cell culture materials were obtained from Invitrogen and all chemicals were obtained from Sigma-Aldrich. Chemicals were prepared from DMSO stock solutions, except paraquat, N-acetyl-cysteine, and 3-methyladenine, which were added fresh to media. Mfn1−/−, Mfn2−/− and Mfn1−/−, Mfn2−/− double knockout MEFs were generously donated by D. C. […]

CO[C@H]1[C@@H](O)[C@H](C)C[C@H](C)/C=C/C=C/C=C(\C)[C@@H](c2c[nH]c3c(C)cccc23)C[C@@H]2CC[C@@H](C)[C@@](O)(O2)C(=O)C(=O)N2CCCC[C@H]2C(=O)O[C@H]([C@H](C)C[C@@H]2CC[C@@H](O)[C@H](OC)C2)C[C@H](O)[C@H](C)/C=C(\C)[C@H]1O [AP21967]
cells with mCherry-Parkin recruited to mitochondria (HeLa cells [1]; HeLa with FRB-PINK1Δ1-110-YFP, TOM20-FKBP, mCherry-Parkin, 250 nM AP21967, 8 hours, absence of CCCP): 96.7±4.1% | recruitment of FRB-PINK1Δ1-110-YFP to the outer mitochondrial membrane (HeLa cells [1]; HeLa, 250 nM AP21967): quickly recruited

C[n+]1ccc(-c2cc[n+](C)cc2)cc1 [paraquat, reference compound]
YFP-Parkin recruitment to mitochondria (HeLa cells [2]): recruited to depolarized mitochondria | YFP-Parkin recruitment to mitochondria (HeLa cells [2]; listed as Paraquat): triggers Parkin recruitment to mitochondria | average pearson coefficient PINK1-YFP / MTR (HeLa cells [3]): 0.26±0.13 | average pearson coefficient PINK1-YFP / cytochrome c (HeLa cells [3]): 0.58±0.11

B1: G105W: PINK1-YFP transmembrane domain point mutant (protein, UniProt Q9BXM7 78-581, looked up, variant G105W)
Serine/threonine-protein …: AARLQRQFVVRAWGCAGPCGRAVFLAFWLGLGLIEEKQAESRRAVSACQEIQAIFTQKSKPGPDPLDTRRLQGFRLEEYLIGQSIGKGCSAAVYEATMPTLPQNLEVTKSTGLLPGRGPGTSAPGEGQERAPGAPAFPLAIKMMWNISAGSSSEAILNTMSQELVPASRVALAGEYGAVTYRKSKRGPKQLAPHPNIIRVLRAFTSSVPLLPGALVDYPDVLPSRLHPEGLGHGRTLFLVMKNYPCTLRQYLCVNTPSPRLAAMMLLQLLEGVDHLVQQGIAHRDLKSDNILVELDPDGCPWLVIADFGCCLADESIGLQLPFSSWYVDRGGNGCLMAPEVSTARPGPRAVIDYSKADAWAVGAIAYEIFGLVNPFYGQGKAHLESRSYQEAQLPALPESVPPDVRQLVRALLQREASKRPSARVAANVLHLSLWGEHILALKNLKLDKMVGWLLQQSAATLLANRLTEKCCVETKMKMLFLANLECETLCQAALLLCSWRAAL
modifications: C-terminal YFP fusion
notes: PINK1-YFP transmembrane domain point mutant
52 kDa fragment of PINK1 (PINK1): stabilize the 52 kDa fragment | mitochondrial translocation of Parkin induced by PINK1 mutant (HeLa cells [4]): did not recruit Parkin

B2: mCherry-Parkin: mCherry-tagged Parkin expressed from a transfected vector (protein, UniProt O60260 1-465, looked up)
E3 ubiquitin-protein ligase …: MIVFVRFNSSHGFPVEVDSDTSIFQLKEVVAKRQGVPADQLRVIFAGKELRNDWTVQNCDLDQQSIVHIVQRPWRKGQEMNATGGDDPRNAAGGCEREPQSLTRVDLSSSVLPGDSVGLAVILHTDSRKDSPPAGSPAGRSIYNSFYVYCKGPCQRVQPGKLRVQCSTCRQATLTLTQGPSCWDDVLIPNRMSGECQSPHCPGTSAEFFFKCGAHPTSDKETSVALHLIATNSRNITCITCTDVRSPVLVFQCNSRHVICLDCFHLYCVTRLNDRQFVHDPQLGYSLPCVAGCPNSLIKELHHFRILGEEQYNRYQQYGAEECVLQMGGVLCPRPGCGAGLLPEPDQRKVTCEGGNGLGCGFAFCRECKEAYHEGECSAVFEASGTTTQAYRVDERAAEQARWEAASKETIKKTTKPCPRCHVPVEKNGGCMHMKCPQPQCRLEWCWNCGCEWNRVCMGDHWFDV
modifications: mCherry fusion
notes: mCherry-tagged Parkin expressed from a transfected vector
LC3 encompassed mitochondria per cell [5]: 10.55±6.06
